{
  "source": "patent US20170350876A1",
  "about": "“BIOSENSOR FOR SINGLE CELL ANALYSIS” (priority 2016, published 2017)",
  "key": {"MCF-7 single cells": {"test_system": "MCF-7 single cells", "assay": "Single cell impedance monitoring on the biosensor (EDR single cell analysis)", "type": "cell-based, human", "settings": "for mean impedance changes of the single cells over time, in words: 2.1 and 10.5 nM MBZ, 0.1 and 1 nM PTX, nano-roughened biosensor, about 4 kHz, FIG. 12A", "protocol": "MCF-7 cell lines which were acquired to be used in this example. The cell lines have been separated from grad I human breast tumors. The cell lines were maintained at 37° C. in an incubator (about 5% CO2, about 95% clean air) and in RPMI-1640 medium supplemented with about 5% fetal bovine serum and about 1% penicillin/streptomycin. The fresh medium was replaced every other day. In order to detach cell from the substrate and become suspended in cell solution, cells was trypsynized. As performing cell culturing process at room temperature of about 20° C. -22° C., trypsinization should be done in less than about 6 minutes to minimize the influence of trypsinization. The cell solution was dropped onto an exemplary biosensor, which was fabricated according to EXAMPLE 1, and then the biosensor was maintained in an incubator for about 4 hours to reach cells attachment on the biosensor surface and trapping single cells within microwells of the biosensor.\nExemplary biosensors with cell solutions dropped onto them (as described herein in EXAMPLE 2) were maintained in an incubator for about 4 hours to reach cells attachment on biosensors surface. MBZ and PTX antitubulin drugs were added into the microwells containing single cells in low concentrations (about 2.1 nM for MBZ and about 0.1 nM for PTX) and high concentrations (about 10.5 nM for MBZ and about 1 nM for PTX) concentrations. The signals were recorded 2 hours, 5 hours, 8 hours, 20 hours, 32 hours, and 44 hours after drug addition that means 6 hours, 9 hours, 12 hours, 24 hours, […]. Electrical signals Measurements were collected in frequencies ranged from about 1 KHz to about 60 KHz by impedance measurement system (electrical signal extraction board) at about every 2 hours. A small “ac” sinusoidal signal was applied to the sensors. For different frequencies of the “ac” signal, the sensitivity of the sensor would vary which is called as the frequency characteristics. The bias voltage of the system was about 40 mV which wasn't destructive for cellular metabolism and a series resistance was used as current limiter element. For each cell trapped in each microwell of the biosensors, four electrodes may be used for signal extraction in two states (with up-down or right-left neighbor electrodes). The final result may be the average of the several signals extracted from the different sensors on a chip (several microwells on a biosensor) to consider cellular heterogeneity and different positioning of the cells relative to the electrodes and other parameters.\nFIGS. 10A-10F show impedance diagrams for a MCF-7 single cell seeded and trapped in a microwell between electrodes about 4 hours after dropping the solution containing cells, which was assumed as an initial time (T=0) for all measurement experiments. After the attachment of the cell on the region between recording or sensing electrodes (after about 4 hours), observable increment in impedance was recorded with respect to media solution covered state (curve 1001 Vs. curve 1002 in FIG. 10A). T parameter was defined as a time merit started after dropping of the cells (t=4 hours was assumed equal to T=0). Delta Z (ΔZ) may include the difference between impedance at about 4 hours after cell seeding (equal to T=0) and the 4+x^th hours (x may be equal to 2, 5, 8, etc.), divided by the impedance at T=0. Average impedance of all frequencies were used for comparison. For better comprehension of impedimetric regime, the impedance changes of the CTRL cell were plotted in subsequently next time periods (about 6th, 9th, 12th and 24th hours) with respect to the impedance of the sensor in 4th hours after dropping the cells solution that are shown by curves 1003 (at T=2 or t=6 hours), 1004 (at T=5 or t=9 hours), 1005 (at T=8 or t=12 hours), and 1006 (at T=20 or t=24 hours) in FIG. 10B. […]"}, "[1]": {"test_system": "MCF-7 cells, cytoskeletal structure (microtubules)", "assay": "Confocal imaging of drug treated single cells (anti-α-tubulin staining)", "settings": "10.5 nM MBZ or 1 nM PTX, about 20 hours after drug treatment, compared with CTRL"}},
  "data": [
    {"smiles": "CC(=O)O[C@H]1C(=O)[C@@]2(C)[C@H]([C@H](OC(=O)c3ccccc3)[C@]3(O)C[C@H](OC(=O)[C@H](O)[C@@H](NC(=O)c4ccccc4)c4ccccc4)C(C)=C1C3(C)C)[C@]1(OC(C)=O)CO[C@@H]1C[C@@H]2O", "note": "[PTX, Paclitaxel]", "values": [
      {"measurement": "impedance increment", "setting": "MCF-7 single cells; 0.1 nM PTX, T=about 2 hours, relative to T=0, FIG. 10E", "result": "about 10%"},
      {"measurement": "impedance increment", "setting": "MCF-7 single cells; 0.1 nM PTX, T=about 5 hours, relative to T=0, FIG. 10E", "result": "~30", "unit": "%"},
      {"measurement": "impedance increment", "setting": "MCF-7 single cells; 0.1 nM PTX, T=about 8 hours, relative to T=0, FIG. 10E", "result": "~35", "unit": "%"},
      {"measurement": "impedance increment", "setting": "MCF-7 single cells; 0.1 nM PTX, T=about 20 hours, relative to T=0, FIG. 10E", "result": "~45", "unit": "%"},
      {"measurement": "impedance increment", "setting": "MCF-7 single cells; 1 nM PTX (high dose), T=2 hours, FIG. 10F", "result": "about 5%"},
      {"measurement": "impedance increment", "setting": "MCF-7 single cells; 1 nM PTX (high dose), T=5 hours, FIG. 10F", "result": "~15", "unit": "%"},
      {"measurement": "impedance increment", "setting": "MCF-7 single cells; 1 nM PTX (high dose), T=8 hours, FIG. 10F", "result": "~20", "unit": "%"},
      {"measurement": "impedance increment", "setting": "MCF-7 single cells; 1 nM PTX (high dose), T=20 hours, FIG. 10F", "result": "~25", "unit": "%"},
      {"measurement": "mean impedance changes of the single cells over time, in words", "setting": "MCF-7 single cells", "result": "moderate impedance increment with dose dependent reductive regime"},
      {"measurement": "effect on cytoskeletal structure and mitosis (confocal images), in words", "setting": "[1]", "result": "aggregated MTs as polymerizing effect of Taxol on cytoskeletal structure which induced mitotic arrest in the cell and deformed the nucleus during the mitosis"}
    ]},
    {"smiles": "COC(=O)Nc1nc2ccc(C(=O)c3ccccc3)cc2[nH]1", "note": "[MBZ, methyl5-benzoyl-2-benzimidazole-carbamate]", "values": [
      {"measurement": "impedance reduction", "setting": "MCF-7 single cells; 2.1 nM MBZ, T=2 hours, relative to T=0, FIG. 10C", "result": "about 5%"},
      {"measurement": "impedance reduction", "setting": "MCF-7 single cells; 2.1 nM MBZ, T=6 hours (so in the source), relative to T=0, FIG. 10C", "result": "~10", "unit": "%"},
      {"measurement": "impedance reduction", "setting": "MCF-7 single cells; 2.1 nM MBZ, T=8 hours, relative to T=0, FIG. 10C", "result": "about 15%"},
      {"measurement": "impedance reduction", "setting": "MCF-7 single cells; 2.1 nM MBZ, T=20 hours, relative to T=0, FIG. 10C", "result": "~30", "unit": "%"},
      {"measurement": "impedance reduction", "setting": "MCF-7 single cells; 10.5 nM MBZ, first time interval (T=2 hours), FIG. 10D", "result": "about 15%"},
      {"measurement": "impedance reduction", "setting": "MCF-7 single cells; 10.5 nM MBZ, fourth time interval (T=20 hours), FIG. 10D", "result": "~45", "unit": "%"},
      {"measurement": "impedance reduction", "setting": "MCF-7 single cells; 10.5 nM MBZ, second time interval (T=6 hours as printed), FIG. 10D", "result": "~25", "unit": "%"},
      {"measurement": "impedance reduction", "setting": "MCF-7 single cells; 10.5 nM MBZ, third time interval (T=8 hours), FIG. 10D", "result": "~35", "unit": "%"},
      {"measurement": "mean impedance changes of the single cells over time, in words", "setting": "MCF-7 single cells", "result": "continues reduction in the impedance which exhibited a linier correlation with doses of the drug"},
      {"measurement": "effect on cytoskeletal structure and mitosis (confocal images), in words", "setting": "[1]", "result": "No entrance to even primary cycles of mitosis, degraded distribution of cytoskeleton and monoastered microtubules"}
    ]}
  ]
}
